How the values were obtained:
Assay type in all cases: cell-based
Saccharomyces cerevisiae = assay: Disk inhibition testing, S. cerevisiae; conditions: 24 hours at 30° C.; for zone of inhibition at 100 µg/disc: Saccharomyces cerevisiae, 100 μg sample per disk, NI = no inhibition, read-out: Diameter of zone of growth inhibition, S. Cerevisiae
Method: (§1) Plates of Sabourad Dextrose Agar (Difco) and tubes of Malt Extract Broth (20 mL/tube) were prepared according to manufacturer direction using aseptic techniques. Fungal broths of Saccharomyces cerevisiae and Candida albicans were prepared in a tissue culture hood by transferring frozen stock culture (−70° C. freezer, prepared from ATCC bought strains) of the given fungi to the broth tube. The S. cerevisiae culture tubes were incubated for 48 hours at 30° C. and the C. albicans culture tubes were incubated for 48 hours at 37° C.
(§2) Each sample (˜15 mg) was dissolved in a solvent (3.000 mL of tetrahydrofuran or 3.000 mL distilled water) depending on the sample's solubility. The sample (20 μL of sample solution or 100 μg of sample was then transferred to a sterile filter paper disk. The disk was then allowed to dry so that all solvent was evaporated and 100 μg of sample remained on the disk.
Plates of Sabourad Dextrose Agar (Difco) were prepared according to manufacture directions using aseptic techniques. The fungal agar plates were prepared using the culture broth of S. cerevisiae, C. albicans, A. fumigatus or A. niger as prepared above after the incubation period. In a tissue culture hood, the fungal culture broth solution (200 μL) was transferred to each Sabourad Dextrose Agar plate and spread evenly over the agar and allowed to dry for a minimum of 20 minutes. Four sample disks or control antifungal disks were then places onto each agar plate, one in the center of each quadrant of the plate. The sample disks were prepared as described above and the antifungal disks were pre-made disks of 20 μg of amphotericin B.
The C. albicans and A. fumigfatus plates were incubated for 24 hours at 37° C., the A. niger plates were incubated for 48 hours at 25° C. and the S. cerevisiae plates were incubated for 24 hours at 30° C. The plates were then observed for zones of fungal growth inhibition. Where a zone of growth inhibition was observed, the diameter of the ring was measured to the closest 0.1 mm using a caliper. […]

Aspergillus fumigatus = assay: Disk inhibition testing, A. fumigatus; conditions: pre-made antifungal disk 20 μg; 24 hours at 37° C.
Method: (§3) Fungal broths of Aspergillus fumigatus and Aspergillus niger were prepared in a tissue culture hood by transferring the frozen stock culture (−70° C. freezer) of the given fungi to a plate of Sabourad Dextrose Agar. The A. fumigatus culture plates were incubated for 48 hours at 37° C. and the A. niger culture plates were incubated for 72 hours at 25° C. The fungal broth was prepared by using a cork borer to add 2-3 circular pieces of agar containing active fungal growth to distilled water (4.0 mL). A tissue homogenizer was then used to grind the agar and create a suspension of fungal spores.
(§4) Each sample (˜15 mg) was dissolved in a solvent (3.000 mL of tetrahydrofuran or 3.000 mL distilled water) depending on the sample's solubility. The sample (20 μL of sample solution or 100 μg of sample was then transferred to a sterile filter paper disk. The disk was then allowed to dry so that all solvent was evaporated and 100 μg of sample remained on the disk. […]
(§5) The C. albicans and A. fumigfatus plates were incubated for 24 hours at 37° C., the A. niger plates were incubated for 48 hours at 25° C. and the S. cerevisiae plates were incubated for 24 hours at 30° C. […] Where a zone of growth inhibition was observed, the diameter of the ring was measured to the closest 0.1 mm using a caliper. […]

Candida albicans = assay: Disk inhibition testing, C. albicans; conditions: 24 hours at 37° C.
Method: as §1, §2
Plates of Sabourad Dextrose Agar (Difco) were prepared according to manufacture directions using aseptic techniques. […]
as §5

Aspergillus niger = assay: Disk inhibition testing, A. niger; conditions: 48 hours at 25° C.
Method: as §3, §4, §5

Proteus hauseri = assay: Disk inhibition testing, P. hauseri; conditions: 24 hours at 37° C.; for zone of inhibition at 100 µg/disc: Proteus hauseri, 100 μg sample per disk, NI = no inhibition, read-out: Diameter of zone of growth inhibition, P. Hauseri
Method: (§6) Tubes of Tryptic Soy Broth (10 mL/tube,) were prepared according to manufacturer directions (Difco) using aseptic techniques. Bacterial broth of Escherichia coli, Staphylococcus aureus, Pseudomonas aeruginosa, Proteus hauseri, and Bacillus cereus were prepared in a tissue culture hood by transferring frozen stock culture (−70° C. freezer, prepared from ATCC bacterial quality control strains) of the given bacteria to the broth tube. The E. coli, S. aureus, P. aeruginosa, and P. hauseri culture tubes were then incubated for 24 hours at 37° C. and the B. cereus culture tubes were incubated at 30° C. for 24 hours.
as §2
(§7) Plates of Mueller Hinton II Agar (Difco) were prepared according to manufacturer directions using aseptic techniques. The bacterial agar plates were prepared using the bacterial culture broth of E. coli, S. aureus, P. aeruginosa, P. hauseri, or B. cereus as prepared above after the incubation period. In a tissue culture hood, the given bacterial culture broth solution (300 μL) was transferred to each Mueller Hinton Agar II plate and spread evenly over the agar and allowed to dry for a minimum of 20 minutes. Four sample disks (as prepared above) or control antibiotic disks (pre-made disks) were then places onto each agar plate, one in the center of each quadrant of the plate.
(§8) The E. coli, S. aureus, P. aeruginosa, and P. hauseri, plates were incubated for 24 hours at 37° C. and the B. cereus plates were incubated for 24 hours at 30° C. The plates were then observed for zones of bacterial growth inhibition. Where a zone of growth inhibition was observed, the diameter of the ring was measured to the closest 0.1 mm using a caliper. […] The absence of a uniform bacterial lawn was ruled a failed test and in this case the test would need to be repeated in order to achieve meaningful results.

Pseudomonas aeruginosa = assay: Disk inhibition testing, P. aeruginosa; conditions: 24 hours at 37° C.
Method: as §6, §2, §7, §8

Escherichia coli = assay: Disk inhibition testing, E. coli; conditions: 24 hours at 37° C.; for zone of inhibition at 100 µg/disc: Escherichia coli, 100 μg sample per disk, NI = no inhibition, read-out: Diameter of zone of growth inhibition, E. Coli
Method: as §6, §2, §7, §8

Bacillus cereus = assay: Disk inhibition testing, B. cereus; conditions: pre-made control disk 30 μg; 24 hours at 30° C.
Method: as §6, §2
Plates of Mueller Hinton II Agar (Difco) were prepared according to manufacturer directions using aseptic techniques. […]
The E. coli, S. aureus, P. aeruginosa, and P. hauseri, plates were incubated for 24 hours at 37° C. and the B. cereus plates were incubated for 24 hours at 30° C. […] Where a zone of growth inhibition was observed, the diameter of the ring was measured to the closest 0.1 mm using a caliper. […]

Staphylococcus aureus = assay: Disk inhibition testing, S. aureus; conditions: 24 hours at 37° C.; for zone of inhibition at 100 µg/disc: Staphylococcus aureus, 100 μg sample per disk, NI = no inhibition, read-out: Diameter of zone of growth inhibition, S. Aureus
Method: as §6, §2, §7, §8

## C[C@@H]1[C@H](O)[C@@H](C)/C=C/C=C/C=C/C=C/C=C/C=C/C=C/[C@H](O[C@@H]2O[C@H](C)[C@@H](O)[C@H](N)[C@@H]2O)C[C@@H]2O[C@](O)(C[C@@H](O)C[C@@H](O)[C@H](O)CC[C@@H](O)C[C@@H](O)CC(=O)O[C@H]1C)C[C@H](O)[C@H]2C(=O)O [Amphotericin B, amphotericin B]
Saccharomyces cerevisiae; pre-made antifungal disk 20 μg
  Diameter of zone of growth inhibition, S. Cerevisiae: 10.2 mm
Aspergillus fumigatus
  Diameter of zone of growth inhibition, A. Fumigratus: 11.4 mm
Candida albicans; pre-made antifungal disk 20 μg
  Diameter of zone of growth inhibition, C. Albicans: 12.9 mm
Aspergillus niger; pre-made antifungal disk 20 μg
  Diameter of zone of growth inhibition, A. Niger: 9.7 mm

## CC1(C)S[C@@H]2[C@H](NC(=O)[C@H](N)c3ccccc3)C(=O)N2[C@H]1C(=O)O [Ampicillin]
Proteus hauseri; pre-made control disk 10 μg
  Diameter of zone of growth inhibition, P. Hauseri: 7.2 mm
Pseudomonas aeruginosa; pre-made control disk 10 μg, NI = no inhibition
  Diameter of zone of growth inhibition, P. Aeriginosa: 9.1 mm
Escherichia coli; pre-made control disk 10 μg
  Diameter of zone of growth inhibition, E. Coli: 19.7 mm

## O=C(N[C@H](CO)[C@H](O)c1ccc([N+](=O)[O-])cc1)C(Cl)Cl [Chloramphenicol]
Proteus hauseri; pre-made control disk 30 μg
  Diameter of zone of growth inhibition, P. Hauseri: 16.7 mm
Pseudomonas aeruginosa; pre-made control disk 30 μg
  Diameter of zone of growth inhibition, P. Aeriginosa: 18.7 mm
Bacillus cereus
  Diameter of zone of growth inhibition, B. Cereus: 15.7 mm
Staphylococcus aureus; pre-made control disk 30 μg
  Diameter of zone of growth inhibition, S. Aureus: 17.8 mm
Escherichia coli; pre-made control disk 30 μg
  Diameter of zone of growth inhibition, E. Coli: 24.4 mm

## CC(C)=CCCC(C)CCO (centres unmarked) [Citronellol]
Proteus hauseri
  zone of inhibition at 100 µg/disc: 8.8 mm
Saccharomyces cerevisiae
  zone of inhibition at 100 µg/disc: 6.7 mm
Staphylococcus aureus
  zone of inhibition at 100 µg/disc: 5.4 mm
Escherichia coli
  zone of inhibition at 100 µg/disc: 8.7 mm

## CC(C)=CCC/C(C)=C/CO [Geraniol]
Proteus hauseri
  zone of inhibition at 100 µg/disc: 9.3 mm
Candida albicans; Candida albicans, 100 μg sample per disk, NI = no inhibition, read-out: Diameter of zone of growth inhibition, C. Albicans
  zone of inhibition at 100 µg/disc: 8.3 mm
Staphylococcus aureus
  zone of inhibition at 100 µg/disc: 4.7 mm
Aspergillus niger; Aspergillus niger, 100 μg sample per disk, NI = no inhibition, read-out: Diameter of zone of growth inhibition, A. Niger
  zone of inhibition at 100 µg/disc: 8.1 mm
Escherichia coli
  zone of inhibition at 100 µg/disc: 8.5 mm

## C=CC(C)(O)CCC=C(C)C (centres unmarked) [Linalool]
Saccharomyces cerevisiae
  zone of inhibition at 100 µg/disc: 7.3 mm
Pseudomonas aeruginosa; Pseudomonas aeruginosa, 100 μg sample per disk, NI = no inhibition, read-out: Diameter of zone of growth inhibition, P. Aeriginosa
  zone of inhibition at 100 µg/disc: 7.1 mm
Escherichia coli
  zone of inhibition at 100 µg/disc: 7.2 mm

## CN(C)[C@@H]1C(O)=C(C(N)=O)C(=O)[C@@]2(O)C(O)=C3C(=O)c4c(O)cccc4[C@@](C)(O)[C@H]3C[C@@H]12 [Tetracycline]
Proteus hauseri; pre-made control disk 30 μg
  Diameter of zone of growth inhibition, P. Hauseri: 15.9 mm
Pseudomonas aeruginosa; pre-made control disk 30 μg
  Diameter of zone of growth inhibition, P. Aeriginosa: 12.3 mm
Bacillus cereus
  Diameter of zone of growth inhibition, B. Cereus: 23.4 mm
Staphylococcus aureus; pre-made control disk 30 μg
  Diameter of zone of growth inhibition, S. Aureus: 19.0 mm
Escherichia coli; pre-made control disk 30 μg
  Diameter of zone of growth inhibition, E. Coli: 21.4 mm

## Penicillin
Proteus hauseri; pre-made control disk 10 μg
  Diameter of zone of growth inhibition, P. Hauseri: 8.1 mm
Staphylococcus aureus; pre-made control disk 10 μg
  Diameter of zone of growth inhibition, S. Aureus: 16.9 mm
Escherichia coli; pre-made control disk 10 μg
  Diameter of zone of growth inhibition, E. Coli: 9.4 mm
